Earlier results in US20220304980A1, “METERED DOSING COMPOSITIONS AND METHODS OF USE OF P[…]” (SW Holdings, Inc, priority 2019, published 2022).

Experiments:
5-HT2A receptor = 5-HT2A receptor (Homo sapiens, UniProt P28223); settings: selective 5-HT2A antagonists; cited from earlier work
rat veins = settings: cited from earlier work

Chain of 5-HT2A receptor (P28223 whole entry): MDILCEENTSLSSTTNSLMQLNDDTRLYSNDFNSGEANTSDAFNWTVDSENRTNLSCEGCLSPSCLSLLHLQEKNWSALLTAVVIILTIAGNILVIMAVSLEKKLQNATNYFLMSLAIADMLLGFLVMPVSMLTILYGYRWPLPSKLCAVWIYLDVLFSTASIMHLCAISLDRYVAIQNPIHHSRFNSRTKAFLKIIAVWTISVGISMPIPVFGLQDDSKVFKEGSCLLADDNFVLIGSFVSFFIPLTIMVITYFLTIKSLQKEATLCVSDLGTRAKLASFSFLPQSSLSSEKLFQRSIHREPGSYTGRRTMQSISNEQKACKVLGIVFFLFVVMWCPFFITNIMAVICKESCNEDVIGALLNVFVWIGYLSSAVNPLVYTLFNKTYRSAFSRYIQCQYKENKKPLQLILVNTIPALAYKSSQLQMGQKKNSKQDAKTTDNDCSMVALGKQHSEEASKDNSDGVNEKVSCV

| SMILES | vascular effect (5-HT2A receptor) | effect on rat veins (rat veins; 5-HT2A agonist) | effect on DOI-induced constriction of rat veins (rat veins; 5-HT2A antagonist) |
| --- | --- | --- | --- |
| O=CN1CCC(C(=O)NCCN2CCC(=C3c4ccccc4C=Cc4ccccc43)CC2)CC1 [AT-1015] | vasodilating properties |  |  |
| COc1cccc(CCc2ccccc2OCC(CN(C)C)OC(=O)CCC(=O)O)c1 (centres unmarked) [sarpogrelate] | vasodilating properties |  |  |
| COc1cc(CC(C)N)c(OC)cc1I (centres unmarked) [DOI] |  | constricts rat veins |  |
| O=C(c1ccc(F)cc1)C1CCN(CCn2c(=O)[nH]c3ccccc3c2=O)CC1 [ketanserin] | vasodilating properties |  | blocked |
